Patent US20200297725A1, “ALLOSTERIC BCR-ABL PROTEOLYSIS TARGETING CHIMERIC COMPOUNDS” (YALE UNIVERSITY, priority 2019, published 2020)
pIC50: −log10 of the molar value. Entries after “also recorded” stand apart in the source; their conditions may differ. Where two headings read alike, the source gives them in different places.

Columns and labels:
[1] = system: K562 cells; experiment: K562 cell proliferation assay; type: cell-based; conditions: Homo sapiens
Procedure: (§1) Cell lines and patient samples were exposed to dose ranges of single or combination agents and incubated for 3 days at 37° C., 5% CO2 and subjected to a CellTiter 96 AQueous One solution cell proliferation assay (Promega). IC50 values calculated and analyzed using Prism 6 software (GraphPad).

[2] = Pharmacokinetics in mouse; type: in vivo; conditions: 10 mg/kg IP
Procedure: The pharmacokinetic properties were determined at Pharmaron, China. The exemplary compound was formulated (in 5% EtOH & 5% Solutol HS15 in D5W(ESD-2)) and administered by intraperitoneal (I.P.) injection at a dosing level of 10 mg/kg. Plasma samples were collected at 0.25 hours, 0.5 hours, 1 hour, 2 hours, 4 hours, 8 hours, and 24 hours following dosing.
Acetonitrile was added to precipitate protein and the samples were vortexed for 30 second, centrifuged (4000 rpm, 15 minutes), diluted with water and the compound concentration determined by LC/MS/MS according to a standard curve.

[3] = system: K562 cells; experiment: K562 xenograft model in athymic mice; type: in vivo; conditions: 200 mg/kg IP once every 24 hours, day 4-6
Procedure: K562 cells were implanted subcutaneously into the flank of athymic mice and tumors were allowed to develop to approx. 200 mm^3. Animals were then randomised into treatment or vehicle groups on day 1. On day 4-6, animals were either treated with exemplary compound GMB-805 (Compound 19; 200 mg/kg) or vehicle control by IP injection once every 24 hours.
All in vivo experiments were conducted in accordance with institutional guidelines and were approved by Yale Institutional Animal Care & Use Committee. Mice were housed in pathogen-free animal facilities and with access to food and water ad libitum. K562 cells in Matrigel (Corning Life Sciences) were injected subcutaneously into the flank of athymic mice (Charles River) and allowed to proliferate until tumors reached −200 mm^3 at which point mice were randomized into treatment groups and treated I.P. with vehicle or exemplary compound once a day at 200 mg/kg for 3 days. Tumors were measured via caliper and volumes calculated following equation:
where V=volume, L=Length and W=Width

[4] = molecular target: T1, BCR-ABL1 (Homo sapiens, UniProt P00519); experiment: BCR-ABL1 / c-ABL1 degradation in K562 cells by immunoblot; type: cell-based; parameters: K562 cell lines were purchased from ATCC; BCR N-terminal portion (fusion partner, human BCR P11274); host or cells: K562; the other entry of the earlier key: BCR (P11274, Breakpoint cluster region protein); conditions: for DC50 / BCR-Abl and c-Abl levels on co-treatment with GMB-805 (Compound 19) / BCR-ABL1 and c-ABL1 levels on co-treatment with Compound 10: K562 cells; for BCR-Abl and c-Abl levels on co-treatment with GMB-805 (Compound 19): 1 μM GMB-805, 8 hours; for BCR-ABL1 and c-ABL1 levels on co-treatment with Compound 10: 8 hour treatment, compared to Compound 10 alone
Procedure: The cells were collected at 300 g for 3 min. […] The total protein concentrations were determined by Pierce BCA Protein Assay and 30-50 μg of protein was loaded onto 10% Tris-Glycine gels. After standard gel electrophoresis, the separated proteins were transferred to nitrocellulose by wet transfer. The immunoblots were then processed by standard procedures and incubated with the respective antibodies. Band intensities were quantified by Bio-Rad's Image Lab software.
Gels were transferred and then blocked in TBS-Tween buffer with 5% BSA. […] Following incubation with appropriate HRP-conjugated secondary antibodies, membranes were imaged on a BioRad ChemiDoc using BioRad Clarity Western ECL substrate and Thermo Super Signal West Femto Maximum Sensitivity substrate.
(§2) Following centrifugation at 13,000×g for 15 minutes at 4° C. to pellet insoluble materials, the protein concentrations of the supernatants were quantitated by BCA assay (Thermo Fisher Scientific). Protein samples were resolved by SDS-PAGE, transferred to nitrocellulose, blocked with 5% non-fat milk and probed with the marked antibodies. Immunoblots were developed using enhanced chemiluminescence and visualized using a Bio-Rad Chemi-Doc MP Imaging System with Image Lab v.5.2.1 software (Bio-Rad Laboratories).
Target sequence in this assay (P00519 with tags, fused parts or gaps): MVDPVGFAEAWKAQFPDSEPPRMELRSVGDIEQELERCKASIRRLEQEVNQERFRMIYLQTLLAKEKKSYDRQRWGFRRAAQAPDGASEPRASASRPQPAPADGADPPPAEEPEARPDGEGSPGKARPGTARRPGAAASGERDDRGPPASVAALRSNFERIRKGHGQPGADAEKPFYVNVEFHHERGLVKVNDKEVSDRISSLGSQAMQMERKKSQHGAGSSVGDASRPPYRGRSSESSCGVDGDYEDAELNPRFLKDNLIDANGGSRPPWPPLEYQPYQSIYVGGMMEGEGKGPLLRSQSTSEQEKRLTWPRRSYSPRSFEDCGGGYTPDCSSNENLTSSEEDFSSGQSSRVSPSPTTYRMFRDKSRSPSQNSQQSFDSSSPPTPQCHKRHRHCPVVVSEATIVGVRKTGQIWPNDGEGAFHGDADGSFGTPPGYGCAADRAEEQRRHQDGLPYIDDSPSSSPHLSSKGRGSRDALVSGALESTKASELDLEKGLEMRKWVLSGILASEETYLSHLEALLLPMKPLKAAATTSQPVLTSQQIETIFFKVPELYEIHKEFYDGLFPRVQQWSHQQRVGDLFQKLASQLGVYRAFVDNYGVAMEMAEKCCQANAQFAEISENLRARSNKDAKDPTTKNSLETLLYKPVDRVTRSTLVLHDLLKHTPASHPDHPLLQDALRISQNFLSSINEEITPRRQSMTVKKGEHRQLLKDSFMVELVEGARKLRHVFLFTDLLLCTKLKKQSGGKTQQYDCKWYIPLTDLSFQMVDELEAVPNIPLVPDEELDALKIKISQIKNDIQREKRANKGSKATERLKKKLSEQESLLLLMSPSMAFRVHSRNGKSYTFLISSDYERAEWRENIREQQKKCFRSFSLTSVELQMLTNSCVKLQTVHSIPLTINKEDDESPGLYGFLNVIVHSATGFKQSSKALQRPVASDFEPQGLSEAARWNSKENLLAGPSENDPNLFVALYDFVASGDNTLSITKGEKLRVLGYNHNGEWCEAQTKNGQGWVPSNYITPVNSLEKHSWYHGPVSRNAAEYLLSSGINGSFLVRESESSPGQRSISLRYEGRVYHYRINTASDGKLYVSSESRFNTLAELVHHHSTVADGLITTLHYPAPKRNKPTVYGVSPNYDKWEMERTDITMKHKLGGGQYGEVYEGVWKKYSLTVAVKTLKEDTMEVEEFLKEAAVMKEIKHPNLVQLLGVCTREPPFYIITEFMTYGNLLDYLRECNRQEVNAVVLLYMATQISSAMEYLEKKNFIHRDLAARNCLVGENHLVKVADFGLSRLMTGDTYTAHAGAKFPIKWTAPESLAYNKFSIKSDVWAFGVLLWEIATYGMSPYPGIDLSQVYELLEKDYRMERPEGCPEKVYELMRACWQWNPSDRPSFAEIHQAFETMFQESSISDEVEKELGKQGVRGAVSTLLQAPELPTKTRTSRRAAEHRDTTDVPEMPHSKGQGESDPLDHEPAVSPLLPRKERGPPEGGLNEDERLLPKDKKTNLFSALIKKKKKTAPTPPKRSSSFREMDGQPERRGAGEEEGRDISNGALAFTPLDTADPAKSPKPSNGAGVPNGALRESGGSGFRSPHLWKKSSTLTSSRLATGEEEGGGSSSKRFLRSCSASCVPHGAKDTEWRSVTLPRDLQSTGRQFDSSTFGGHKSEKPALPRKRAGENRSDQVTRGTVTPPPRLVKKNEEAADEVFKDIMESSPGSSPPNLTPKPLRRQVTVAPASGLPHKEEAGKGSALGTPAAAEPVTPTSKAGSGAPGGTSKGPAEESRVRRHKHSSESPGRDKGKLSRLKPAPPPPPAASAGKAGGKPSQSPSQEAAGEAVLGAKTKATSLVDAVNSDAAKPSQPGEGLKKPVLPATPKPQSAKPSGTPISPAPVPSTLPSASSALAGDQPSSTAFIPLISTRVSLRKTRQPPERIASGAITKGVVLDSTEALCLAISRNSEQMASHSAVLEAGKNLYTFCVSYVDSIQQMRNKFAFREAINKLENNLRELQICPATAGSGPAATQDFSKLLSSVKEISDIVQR

[5] = system: healthy donor CD34+ cells; experiment: Effect on healthy donor CD34+ cells; type: cell-based, human; conditions: proliferation and apoptosis
[6] = molecular target: T1, BCR-ABL1; experiment: Immunoblot of co-treatment with ponatinib in Ba/F3 BCR-ABL1 wild-type cells; type: cell-based, murine; parameters: BCR N-terminal portion (fusion partner, BCR P11274); expressed in transfected cells; the other entry of the earlier key: BCR (P11274, Breakpoint cluster region protein); conditions: overnight co-treatment with ponatinib
Description: (§3) Samples were lysed in 1× Cell Signaling lysis buffer (#9803S) supplemented with PMSF and complete mini tablets (Sigma #11836153001). Lysates were quantified and separated on 4-15% Tris-glycine polyacrylamide gels. Gels were transferred and then blocked in TBS-Tween buffer with 5% BSA. The following primary antibodies were used: tABL, BD #554148 anti-mouse 1:400; c-ABL1, SantaCruz #24-11 anti-mouse 1:1000; B-tubulin, Millipore #05-66-MI anti-mouse 1:5000; pSTAT5, # CS9351S anti-rabbit 1:1000 pSTAT5, # CS4322 anti-rabbit 1:1000; pBCR-Abl, # CS2865 anti-rabbit 1:1000; pCRKL, # CS491 anti-rabbit 1:1000; pAKT, # CS4060 anti-rabbit 1:1000; pERK, # CS4695 anti-rabbit 1:1000; pSHP-2, Abcam #62322 anti-rabbit 1:1000; pGAB1, # CS3233 anti-rabbit 1:1000; pGAB2, # CS3882 anti-rabbit 1:1000; pSHC, # CS2434 anti-rabbit 1:1000; VHL, # CS68547 anti-rabbit 1:1000; pCRKL, # CS3181S anti-rabbit 1:1000. Following incubation with appropriate HRP-conjugated secondary antibodies, membranes were imaged on a BioRad ChemiDoc using BioRad Clarity Western ECL substrate and Thermo Super Signal West Femto Maximum Sensitivity substrate.
Target sequence in this assay (P00519 28-1130 limits assumed): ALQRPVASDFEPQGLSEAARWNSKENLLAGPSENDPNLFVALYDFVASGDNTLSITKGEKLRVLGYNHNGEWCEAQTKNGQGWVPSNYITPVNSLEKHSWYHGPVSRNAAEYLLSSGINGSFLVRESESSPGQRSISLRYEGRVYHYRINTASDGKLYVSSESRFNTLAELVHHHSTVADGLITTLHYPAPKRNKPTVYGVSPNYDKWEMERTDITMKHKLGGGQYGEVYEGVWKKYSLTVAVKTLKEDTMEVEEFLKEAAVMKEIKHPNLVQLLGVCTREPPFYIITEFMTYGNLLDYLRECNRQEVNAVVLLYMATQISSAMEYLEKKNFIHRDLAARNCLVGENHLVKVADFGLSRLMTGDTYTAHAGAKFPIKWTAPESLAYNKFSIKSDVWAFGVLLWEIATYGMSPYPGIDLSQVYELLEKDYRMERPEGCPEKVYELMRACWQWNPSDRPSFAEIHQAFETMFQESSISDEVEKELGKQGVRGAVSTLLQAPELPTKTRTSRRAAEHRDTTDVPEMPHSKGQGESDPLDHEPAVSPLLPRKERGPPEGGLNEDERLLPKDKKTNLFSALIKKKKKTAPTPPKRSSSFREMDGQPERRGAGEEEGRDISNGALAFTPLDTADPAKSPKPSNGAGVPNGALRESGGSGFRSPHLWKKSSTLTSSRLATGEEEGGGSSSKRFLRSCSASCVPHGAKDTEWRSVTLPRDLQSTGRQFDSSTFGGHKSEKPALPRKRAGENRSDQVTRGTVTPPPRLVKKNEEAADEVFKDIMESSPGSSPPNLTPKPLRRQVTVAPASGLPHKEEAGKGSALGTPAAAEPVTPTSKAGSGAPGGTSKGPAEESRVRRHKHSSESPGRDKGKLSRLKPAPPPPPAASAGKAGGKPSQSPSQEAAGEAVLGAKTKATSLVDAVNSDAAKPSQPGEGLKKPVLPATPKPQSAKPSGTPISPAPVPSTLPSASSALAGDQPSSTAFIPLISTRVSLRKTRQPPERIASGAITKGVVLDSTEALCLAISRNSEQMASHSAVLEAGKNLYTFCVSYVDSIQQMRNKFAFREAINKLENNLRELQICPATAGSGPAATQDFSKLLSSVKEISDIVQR

[7] = system: BCR-ABL1 transformed Ba/F3 cells; experiment: Cell proliferation of BCR-ABL1 transformed Ba/F3 cells (MTS); type: cell-based, murine
Procedure: as §1
Plates were incubated at 37° C. for 72 h and analyzed by standard MTS-based colorimetric assay. Non-linear regression curve-fit analysis and IC50 calculations were performed using Graphpad Prism software.

[8] = system: Ba/F3 BCR-ABL1 G250E cells; experiment: Cell proliferation of Ba/F3 cells expressing BCR-ABL1 G250E; type: cell-based, murine; conditions: versus wild-type BCR-ABL1
Procedure: as §1

[9] = molecular target: T1, BCR-ABL1; experiment: BCR-ABL1 signaling and scaffolding in K562 cells (RPPA, immunoblot); type: cell-based; parameters: K562 cell lines were purchased from ATCC; BCR N-terminal portion (fusion partner, human BCR P11274); host or cells: K562; the other entry of the earlier key: BCR (P11274, Breakpoint cluster region protein)
Description: as §3
Target sequence in this assay (P00519 with tags, fused parts or gaps): as the sequence (P00519 with tags, fused parts or gaps) above
RPPA was performed in the MDACC CCSG core as described at http://www.mdanderson.org/education-and-research/resources-for-professionals/scientific-resources/core-facilities-and-services/functional-proteomics-rppa-core/index.html.
as §2, with “K562 cells were treated with the indicated concentrations of compound for 24 hours, washed with PBS and then harvested in lysis buffer (50 mM Tris (pH 7.4), 150 mM NaCl, 1 mM EDTA, 0.5% NP-40, phosphatase and protease inhibitors). Following” for “Following”

[10] = system: primary CML CD34+ patient cells; experiment: Apoptosis (Annexin V) in primary CML patient cells; type: cell-based, human; conditions: patient 1; no appreciable difference between PROTAC and diastereomer control
Procedure: Mononuclear cells (MNCs) were isolated from either peripheral blood, bone marrow or leukapheresis samples by Ficoll gradient. MNCs were then treated with ammonium-chloride-potassium (ACK) lysis buffer to remove any residual red blood cells. […] For cell proliferation assays, samples were thawed and cultured in R10. For immunoblot assays, samples were thawed and cultured in IMDM with 40 μg/mL low-density lipoprotein (LDL, Stem Cell), 20% FBS, and 100 μM beta-mercaptaethanol (Sigma).
Sorted samples were recovered overnight in culture in IMDM with 40 μg/mL low-density lipoprotein (LDL, Stem Cell), 20% FBS, and 100 μM beta-mercaptaethanol (Sigma).

[11] = system: Ba/F3 BCR-ABL1 T315I cells; experiment: Cell proliferation of Ba/F3 cells expressing BCR-ABL1 T315I; type: cell-based, murine; conditions: versus wild-type BCR-ABL1
Procedure: as §1

[12] = system: primary CML CD34+ patient cells; experiment: Proliferation of primary CML patient CD34+ cells; type: cell-based, human; conditions: CD34+ cells from newly diagnosed CML patients
Procedure: as §1

[13] = molecular target: T1, BCR-ABL1; experiment: BCR-ABL1 degradation in primary patient LSCs (CD34+CD38-) by immunoblot; type: cell-based; parameters: induce degradation of both BCR-ABL1 and ABL1 in primary patient LSCs; BCR N-terminal portion (fusion partner, human BCR P11274); endogenous in cells; host or cells: primary CML patient CD34+/CD38- cells (patient 1); the other entry of the earlier key: BCR (P11274, Breakpoint cluster region protein); conditions: CD34+/CD38- cells, patient 1, overnight
Procedure: MNCs isolated from specimens via ficoll, then selected for CD34+ by MACs column. Frozen viables were thawed and cultured in IMDM+40 ug/mL LDL+20% FBS+100 uM BME overnight. Sorted using FACS Aria III, stained with CD34 (BD348801) and CD38 (BD555461).
Cells were lysed in Cell Signaling lysis buffer supplemented with PMSF and Complete Mini protease inhibitor tablets. Protein concentration assessed via BCA assay, ran on 4-15% tris-glycine polyacrylamide gel at 180V for 1 h, transferred overnight at 25V, blocked with 5% BSA in TBST for 1 h and incubated at 4 degree in following primary antibodies.
Target sequence in this assay (P00519 28-1130 limits assumed): as the sequence (P00519 28-1130 limits assumed) above

## Cc1ncsc1-c1ccc(CNC(=O)[C@@H]2C[C@@H](O)CN2C(=O)[C@@H](NC(=O)COCCNc2ncc(C(=O)Nc3ccc(OC(F)(F)Cl)cc3)cc2-c2ccn[nH]2)C(C)(C)C)cc1 [Compound 19]
[1]; K562 (FIG. 16B), read-out: antiproliferative activity IC50
  pIC50: 6.77
[2]
  Cmax: well over above both the DC50 and IC50
[3]
  toxicity or weight loss: no toxicity or weight loss was observed; also recorded: induced no weight loss
  tumor volume: no significant increase in tumor volume
[4]; extended dose response, 24 hours (FIG. 16A), read-out: DC50 (concentration at which half maximal degradation is observed)
  DC50: 30 nM

## Cc1ccc(NC(=O)c2ccc(CN3CCN(C)CC3)cc2)cc1Nc1nccc(-c2cccnc2)n1 [imatinib]
[5]
  effect on healthy donor CD34+ cells: had no effect on healthy donor CD34+ cells

## Cc1ncsc1-c1ccc(CNC(=O)[C@@H]2C[C@@H](O)CN2C(=O)[C@@H](NC(=O)COCCOc2ccc(-c3cc(Nc4ccc(OC(F)(F)F)cc4)ncn3)cc2)C(C)(C)C)cc1 [Compound 10]
[6]
  effect of co-treatment with ponatinib (immunoblot): enhanced the ability of Compound 10 to induce degradation
[1]; FIG. 5B/D: K562 and Ba/F3 BCR-ABL1 cells, read-out: cell proliferation IC50
  pIC50: ~6.00
[7]; Mus musculus, BaF3, single agent, 72 h (FIG. 6A), read-out: IC50, dose response titration
  pIC50: 5.95
[7]; co-treatment of imatinib with 2.5 μM Compound 10
  reduction of the IC50 of imatinib by co-treatment: ~3 fold
[8]
  anti-proliferative activity against G250E mutant: enhanced anti-proliferative activity
[9]; K562, 5 μM, 8 h
  total ABL1 protein by RPPA: showed a decrease in total ABL1 protein
[9]; K562, full serum (10% FBS)
  phosphorylation of GAB2 and SHC: able to reduce phosphorylation of GAB2 and SHC
[9]; K562, immunoblot, 8 h and 24 h
  kinase activity of BCR-ABL1 (pBCR-ABL1 Tyr412, pSTAT-5): able to inhibit the kinase activity of BCR-ABL1
[9]; K562, serum-free
  phosphorylation of GAB2, SHC and STAT5: able to inhibit phosphorylation of GAB2 and SHC, as well as STAT5
[10]
  apoptosis in sorted progenitor (CD34+CD38+) and stem (CD34+CD38-) cells: induced apoptosis in the progenitor cells and to a lesser extent in the stem cells
[11]
  effect of T315I mutation on potency: had little effect on the potency of Compound 10
[4]; K562 (FIG. 5A) and Ba/F3 (FIG. 5C) cells, dose- and time-dependent
  degradation of BCR-ABL1 and c-ABL1: induce the degradation of BCR-ABL1 and c-ABL1
[4]; K562, read-out: Dmax (%) [cell line]
  Dmax: 95%
[4]; read-out: DC50
  DC50: 340 nM
[12]
  potency at inhibiting proliferation relative to Compound 14: greater than 2 fold
[13]
  degradation of BCR-ABL1 and ABL1: able to induce degradation of both BCR-ABL1 and ABL1

## CC[C@H](C)[C@H](NC(=O)[C@H]([C@@H](C)CC)N(C)C(C)=O)C(=O)N[C@H](C(=O)N[C@@H](CC(C)C)C(=O)[C@@]1(C)CO1)[C@@H](C)O [epoxomicin, reference compound]
[4]
  BCR-Abl and c-Abl levels on co-treatment with GMB-805 (Compound 19): restored protein concentration back to untreated levels
  BCR-ABL1 and c-ABL1 levels on co-treatment with Compound 10: restored the levels of BCR-ABL1 and c-ABL1

## NS(=O)(=O)OC[C@@H]1C[C@@H](n2ccc3c(N[C@H]4CCc5ccccc54)ncnc32)C[C@@H]1O [MLN-4924, reference compound]
[4]
  BCR-Abl and c-Abl levels on co-treatment with GMB-805 (Compound 19): able to rescue protein levels
  BCR-ABL1 and c-ABL1 levels on co-treatment with Compound 10: inhibited the degradation of BCR-ABL1 and ABL1
